Measurements from US20230414778A1, “COMBINATION OF ANTIBODY-DRUG CONJUGATE WITH ANTI-SIRPalpha ANTIBODY” (DAIICHI SANKYO COMPANY, LIMITED, priority 2020, published 2023).

Tests used:
CT26.WT cells = assay: Evaluation of in vivo ICD induction (vaccination effect, re-challenge); set-up: species or system BALB/c mice; details: mice inoculated with drug-treated CT26.WT cells, n=6
Description: (§1) Cells of mouse colorectal cancer cell line CT26.WT were seeded in a cell-culture flask and cultured overnight. The supernatant was removed and the cells were washed twice with PBS. To induce ICD, compound (A) (4 μM) or MTX (1 μM) was added in a RPMI1640 culture solution containing 10% FBS (R10). Twenty four hours later, HMGB1 in the culture supernatant was measured in accordance with the method shown in Example 1 in order to confirm ICD induction.
For evaluating in vivo ICD, the culture supernatant was removed from each of the culture flasks treated with drugs and the cells were washed twice with PBS, and then cells were collected. The supernatant was removed and the cells were washed once with PBS to prepare a suspension containing 5.0×10^6 cells/mL. As a control, a suspension was prepared by adding CT26.WT cells, which were cultured in a RPMI1640 culture solution containing 10% FBS without a drug, in an amount of 5.0×10^6 cells/mL, in the same manner as above. After centrifugation, the supernatant was removed. The cells were subjected to a freeze-thaw process repeatedly three times and suspended again in PBS to obtain Necrotic cell death (NCD) cells.
The cells (5.0×10^6 cells) of each group mentioned above were subcutaneously inoculated into the right axilla of each of female 6 week-old BALB/c mice (BALB/c AnNCrlCrlj) (bred by CHARLES RIVER LABORATORIES JAPAN, INC.) (inoculation, Day 0). An anti-SIRPα antibody (clone: 5C12) or an anti-CD47 antibody (clone: MIAP410, manufactured by Bio X Cell, Inc.) was intraperitoneally administered at a dose of 10 mg/kg on Day 1 and 5 (two times in total). As a control, the same amount of PBS was administered. Seven days later, CT26.WT cells (3.0×10^6 cells) not treated with a drug were subcutaneously inoculated into the left axilla of each of the mice (re-challenge, Day 0). On Day 14, tumor volumes were measured to evaluate vaccination effect. Note that the number of mice per group was 6. The results of the NCD-PBS group and individual groups were compared in accordance with the Dunnett's test, P value was expressed to four decimal places. The results satisfying P<0.05 (two-sided test) were determined as being significant.

[1] = test system: mouse colorectal cancer cell line CT26.WT; assay: ICD induction evaluation (in vitro): HMGB1 in culture supernatant (ELISA); assay type: cell-based; details: for release of HMGB1, maximum, relative to control: CT26.WT culture supernatant after 24 hours, MTX 0.4-6 μM vs control (0 μM), compound (A) 1-16 μM vs R10 or R10-DMSO; for HMGB1 released in the culture supernatant (confirmation of ICD induction): Example 3, CT26.WT, compound (A) 4 μM or MTX 1 μM, 24 hours
Description: In cancer cells treated with different compounds, the ATP level, and the expression level of HMGB1, which serve as an index of Immunogenic cell death (ICD), were measured. Cells of mouse colorectal cancer cell line CT26.WT were seeded in a 6-well plate and cultured overnight. After the supernatant was removed, the cells were washed twice with PBS. Compound (A) was dissolved in RPMI1640 culture solution containing 10% FBS (R10) to prepare solutions having a final concentration of 0, 1, 4 and 16 μM. As a positive control, Mitoxantrone (MTX) was dissolved in DMSO and added at a final concentration of 0.4, 1.5 and 6 μM. To the control (0 μM) herein, DMSO was added in the same amount as that of compound (A) (R10-DMSO). Twenty four hours later, the culture supernatant was collected, and the levels of ATP and HMGB1 were measured. The level of ATP was measured by adding the culture supernatant in a 96-well white plate, adding the same amount of Back titer-Glo (manufactured by Promega Corporation) and determining the amount of luminescence by a plate reader. The level of HMGB1 was detected by a HMGB1 ELISA-kit (manufactured by Shino-Test Corporation) in accordance with the Sandwich ELISA method. In the plate provided in the kit, a test buffer was added, and thereafter, an HMGB1 standard solution diluted with the test buffer and the culture supernatant were added thereto. It was allowed to stand at 37° C. for 24 hours. After the supernatant was removed and the cells were washed five times with PBS/Tween 20 (200 μL/well), a secondary-antibody solution provided in the kit was added in an amount of 100 μL/well. It was allowed to stand at room temperature for 2 hours. After the supernatant was removed, the cells were washed five times with PBS/Tween 20 (200 μL/well). Thereafter, a color-producing solution provided in the kit was added in an amount of 100 μL/well. The plate was allowed to stand at room temperature for 30 minutes. A stop solution (100 μL/well) was added and stirred. The absorbance at 405 nm was measured by a plate reader. The results of the control group and compound (A) group were compared in accordance with the Dunnett's test. P value was expressed to four decimal places. The results satisfying P<0.05 (two-sided test) were determined as being significant.
as §1

[2] = PBS administration, re-challenge, Day 14
[3] = plus anti-SIRPα antibody (clone 5C12) 10 mg/kg i.p. Day 1 and 5

SMILES | number of CR individuals (engraftment of re-challenged tumor rejected) (CT26.WT cells; [2]) | number of CR individuals (engraftment of re-challenged tumor rejected) (CT26.WT cells; plus anti-CD47 antibody (clone MIAP410) 10 mg/kg i.p. Day 1 and 5) | number of CR individuals (engraftment of re-challenged tumor rejected) (CT26.WT cells; [3]) | release of HMGB1, maximum, relative to control [1] | HMGB1 released in the culture supernatant (confirmation of ICD induction) [1]
CC[C@@]1(O)C(=O)OCc2c1cc1n(c2=O)Cc2c-1nc1cc(F)c(C)c3c1c2[C@@H](NC(=O)CO)CC3 [compound (A)] | 5/6 | all cases show CR | all cases show CR | about 4.6 times | released
O=C1c2c(O)ccc(O)c2C(=O)c2c(NCCNCCO)ccc(NCCNCCO)c21 [MTX, Mitoxantrone, reference compound] | 2/6 | – | 4/6 | about 3 times | released
